# Laboratory results from US8562998B2, “Targeting of antigen presenting cells with immunonanotherapeutics” (President and Fellows of Harvard College, priority 2008, dated 2013).
# Tested on: anti-nicotine IgG
# Assay: Anti-nicotine IgG titers in immunized mice (ELISA)
# Type: in vivo, C57BL6 mice
# Settings: immunized day 0, boosted after 2, 4 and 8 weeks
smiles,measurement,value
"CN1CCCC1c1cccnc1 (stereo not shown) [free nicotine, nicotine]",production of nicotine antibodies,does not elicit the production of nicotine antibodies
